From ChEMBL document CHEMBL1201862, “PubChem BioAssay data set” (2004)
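Results reflect a 48-hour exposure of cells in 96-well plates to compound at five concentrations. GI50: concentration for 50% inhibition of growth.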 The source made the active and inactive calls. Cut-off read from the data, not from the text of the source: active = GI50 up to about 1.1 µM and inactive = higher.

Legend:
Assay in all cases: DTP human tumour cell line panel, 48 h
HCT-15 = test system: HCT-15
SF-539 = test system: SF-539
KM12 = test system: KM12
ACHN = test system: ACHN
HCT-116 = test system: HCT-116
SW-620 = test system: SW-620
MOLT-4 = test system: MOLT-4
UACC-62 = test system: UACC-62
EKVX = test system: EKVX
HL-60 = test system: HL-60
SF-268 = test system: SF-268
SR = test system: SR
SN12C = test system: SN12C
OVCAR-3 = test system: OVCAR-3
IGROV-1 = test system: IGROV-1
HOP-62 = test system: HOP-62
TK-10 = test system: TK-10
NCI-H226 = test system: NCI-H226

Row | SMILES | GI50 (HCT-15) [µM] | GI50 (SF-539) | GI50 (KM12) | GI50 (ACHN) | GI50 (HCT-116) | GI50 (SW-620) | GI50 (MOLT-4) | GI50 (UACC-62) | GI50 (EKVX) | GI50 (HL-60) | GI50 (SF-268) | GI50 (SR) | GI50 (SN12C) | GI50 (OVCAR-3) | GI50 (IGROV-1) | GI50 (HOP-62) | GI50 (TK-10) | GI50 (NCI-H226)
1 | Cc1ccc(-c2nc3ccccc3c(=O)n2NCC2(O)OCC(O)C(O)C2O)cc1 (stereo unspecified) | > 100 | > 100 µM (inactive) | > 100 µM (inactive) | > 100 µM (inactive) | > 100 µM (inactive) | > 100 µM (inactive) | > 100 µM (inactive) | > 100 µM (inactive) | > 100 µM (inactive) | > 100 µM (inactive) | > 100 µM (inactive) | > 100 µM (inactive) | > 100 µM (inactive) | > 100 µM (inactive) | – | – | – | –
2 | C[C@]12CC[C@H](O)CC1=CC[C@@H]1C2CC[C@]2(C)NC(=O)C(C#N)CC12 (stereo partly specified) | 37.8 | > 100 µM (inactive) | > 100 µM (inactive) | 28.6 µM (inactive) | > 100 µM (inactive) | > 100 µM (inactive) | > 100 µM (inactive) | 15.7 µM (inactive) | > 100 µM (inactive) | > 100 µM (inactive) | – | – | – | > 100 µM (inactive) | > 100 µM (inactive) | > 100 µM (inactive) | > 100 µM (inactive) | > 100 µM (inactive)
3 | CC1CN1c1c(C(=O)/C=C/c2ccccc2)c(-c2ccccc2)nn(C)c1=O (stereo unspecified) | 14.1 | 16.9 µM (inactive) | 20.8 µM (inactive) | 17.4 µM (inactive) | 17.5 µM (inactive) | 18.2 µM (inactive) | 15.2 µM (inactive) | 16.2 µM (inactive) | 17.3 µM (inactive) | 17.2 µM (inactive) | 27.9 µM (inactive) | – | 17.7 µM (inactive) | 18.5 µM (inactive) | 23.7 µM (inactive) | 22 µM (inactive) | 25.8 µM (inactive) | 20.8 µM (inactive)
4 | CC1CC(=O)Nc2ccc(Cl)cc2N1C(=O)CN1CCC(CCCCN(C)C)CC1 (stereo unspecified) | > 100 | – | – | > 100 µM (inactive) | > 100 µM (inactive) | > 100 µM (inactive) | > 100 µM (inactive) | > 100 µM (inactive) | – | > 100 µM (inactive) | > 100 µM (inactive) | > 100 µM (inactive) | > 100 µM (inactive) | > 100 µM (inactive) | > 100 µM (inactive) | > 100 µM (inactive) | > 100 µM (inactive) | > 100 µM (inactive)
5 | CCC(=O)N1C(=O)OCC1C(C)C (stereo unspecified) | > 100 | > 100 µM (inactive) | > 100 µM (inactive) | > 100 µM (inactive) | > 100 µM (inactive) | > 100 µM (inactive) | > 100 µM (inactive) | > 100 µM (inactive) | > 100 µM (inactive) | > 100 µM (inactive) | > 100 µM (inactive) | – | > 100 µM (inactive) | > 100 µM (inactive) | > 100 µM (inactive) | > 100 µM (inactive) | > 100 µM (inactive) | –
6 | CCCNCc1nc2ccc(Br)cc2c(=O)n1CCC | 14.2 | 15.8 µM (inactive) | 15.1 µM (inactive) | 16.1 µM (inactive) | 9.98 µM (inactive) | 13.7 µM (inactive) | 7.8 µM (inactive) | 6.93 µM (inactive) | 19.1 µM (inactive) | 6.53 µM (inactive) | 13.6 µM (inactive) | 11.7 µM (inactive) | 13.6 µM (inactive) | 18.4 µM (inactive) | 15.6 µM (inactive) | 22 µM (inactive) | – | 12.5 µM (inactive)
7 | Cc1cc2c(=O)cc(-c3ccc(C(=O)O)cc3)oc2c(C(N)=O)c1C | > 100 | > 100 µM (inactive) | > 100 µM (inactive) | > 100 µM (inactive) | > 100 µM (inactive) | > 100 µM (inactive) | > 100 µM (inactive) | > 100 µM (inactive) | > 100 µM (inactive) | – | > 100 µM (inactive) | – | > 100 µM (inactive) | > 100 µM (inactive) | > 100 µM (inactive) | > 100 µM (inactive) | > 100 µM (inactive) | –
8 | COc1cc(/C=N/c2nncs2)ccc1O | > 100 | > 100 µM (inactive) | > 100 µM (inactive) | > 100 µM (inactive) | > 100 µM (inactive) | > 100 µM (inactive) | > 100 µM (inactive) | > 100 µM (inactive) | > 100 µM (inactive) | > 100 µM (inactive) | > 100 µM (inactive) | > 100 µM (inactive) | > 100 µM (inactive) | – | > 100 µM (inactive) | > 100 µM (inactive) | > 100 µM (inactive) | > 100 µM (inactive)
9 | COC(=O)c1c(OC)cccc1C(=O)O | > 100 | > 100 µM (inactive) | > 100 µM (inactive) | > 100 µM (inactive) | > 100 µM (inactive) | > 100 µM (inactive) | > 100 µM (inactive) | > 100 µM (inactive) | > 100 µM (inactive) | > 100 µM (inactive) | > 100 µM (inactive) | – | > 100 µM (inactive) | > 100 µM (inactive) | > 100 µM (inactive) | > 100 µM (inactive) | > 100 µM (inactive) | > 100 µM (inactive)
10 | COc1ccc2c3ccc4c(c3n(C)c2c1)C(=O)c1ccccc1C4=O | > 100 | 22.2 µM (inactive) | – | 51.3 µM (inactive) | 30.1 µM (inactive) | 80.2 µM (inactive) | > 100 µM (inactive) | > 100 µM (inactive) | > 100 µM (inactive) | > 100 µM (inactive) | 56.6 µM (inactive) | > 100 µM (inactive) | > 100 µM (inactive) | – | > 100 µM (inactive) | > 100 µM (inactive) | – | > 100 µM (inactive)
11 | COC(=O)C(=O)C1(CCC(C)=O)c2ccccc2-c2ccccc21 | 56.4 | – | 74.3 µM (inactive) | > 100 µM (inactive) | 43.6 µM (inactive) | > 100 µM (inactive) | 33.4 µM (inactive) | 97.7 µM (inactive) | > 100 µM (inactive) | 35.5 µM (inactive) | > 100 µM (inactive) | 41 µM (inactive) | > 100 µM (inactive) | 44.6 µM (inactive) | > 100 µM (inactive) | 68.7 µM (inactive) | 71.3 µM (inactive) | > 100 µM (inactive)
12 | C[C@H]1NC(=O)C2CCCCN2C(=O)CN(C)C(=O)CNC(=O)C2CCCCN2C(=O)[C@@H](NC(=O)c2nc3ccccc3cc2O)[C@@H](C)NC(=O)C2CCCCN2C(=O)CN(C)C(=O)CNC(=O)[C@@H]2CCCCN2C(=O)C1NC(=O)c1nc2ccccc2cc1O (stereo partly specified) | 2.75 | 0.201 µM (active) | 0.27 µM (active) | 0.232 µM (active) | – | 0.225 µM (active) | 2.59 µM (inactive) | 0.0229 µM (active) | 0.668 µM (active) | 2.03 µM (inactive) | 0.186 µM (active) | – | 0.313 µM (active) | 0.209 µM (active) | 0.283 µM (active) | 0.251 µM (active) | 0.525 µM (active) | 0.0664 µM (active)
13 | COC1=CC(C)C2C[C@H]3O[C@H](O)C[C@H]4C(C)C(=O)C(O)C([C@@]2(C)C1=O)[C@@]34C (stereo partly specified) | > 100 | > 100 µM (inactive) | > 100 µM (inactive) | > 100 µM (inactive) | > 100 µM (inactive) | > 100 µM (inactive) | > 100 µM (inactive) | > 100 µM (inactive) | > 100 µM (inactive) | – | – | – | > 100 µM (inactive) | > 100 µM (inactive) | > 100 µM (inactive) | – | > 100 µM (inactive) | > 100 µM (inactive)
14 | CN(C)c1ccc(/C=C/C(=O)c2ccccc2)cc1Br | 22.9 | – | 15.8 µM (inactive) | 22.8 µM (inactive) | – | 19.9 µM (inactive) | 23 µM (inactive) | 16.5 µM (inactive) | > 100 µM (inactive) | – | 18.2 µM (inactive) | – | 21.1 µM (inactive) | 17.8 µM (inactive) | 20.2 µM (inactive) | 48.5 µM (inactive) | 26.1 µM (inactive) | –
15 | Cn1c(CCC#N)nc2ccc(Br)cc2c1=O | > 100 | > 100 µM (inactive) | > 100 µM (inactive) | > 100 µM (inactive) | – | > 100 µM (inactive) | > 100 µM (inactive) | > 100 µM (inactive) | > 100 µM (inactive) | > 100 µM (inactive) | > 100 µM (inactive) | – | > 100 µM (inactive) | – | > 100 µM (inactive) | > 100 µM (inactive) | > 100 µM (inactive) | > 100 µM (inactive)
16 | COC(=O)C1CC(OC(C)=O)C=C2C(=O)CCC21 (stereo unspecified) | 15.3 | 20.6 µM (inactive) | 16.9 µM (inactive) | 20.2 µM (inactive) | 16.3 µM (inactive) | 20.3 µM (inactive) | 14.6 µM (inactive) | 19.3 µM (inactive) | – | 16.1 µM (inactive) | 16.6 µM (inactive) | 14 µM (inactive) | 19.2 µM (inactive) | 13.9 µM (inactive) | 27.2 µM (inactive) | 25.4 µM (inactive) | 29.4 µM (inactive) | 73.1 µM (inactive)
17 | Cc1cc(O)c2c(c1)C(O)(c1ccc3c(c1O)C(=O)c1c(O)cc(C)cc1C3(O)C1OC(CO)C(O)C(O)C1O)c1cccc(O)c1C2=O (stereo unspecified) | 12.8 | 13.6 µM (inactive) | 11.5 µM (inactive) | 13 µM (inactive) | 11.9 µM (inactive) | 17.3 µM (inactive) | 10.7 µM (inactive) | 12.1 µM (inactive) | 14.3 µM (inactive) | 3.09 µM (inactive) | 20.1 µM (inactive) | 8.15 µM (inactive) | – | 10.5 µM (inactive) | 14.7 µM (inactive) | 15.3 µM (inactive) | 14.1 µM (inactive) | –
18 | N#CC(C#N)=C1NN=C(Cl)c2ccccc21 | > 100 | 85.5 µM (inactive) | > 100 µM (inactive) | > 100 µM (inactive) | – | > 100 µM (inactive) | > 100 µM (inactive) | 70.5 µM (inactive) | > 100 µM (inactive) | 43.2 µM (inactive) | 72.9 µM (inactive) | – | 96.4 µM (inactive) | > 100 µM (inactive) | > 100 µM (inactive) | 67.8 µM (inactive) | > 100 µM (inactive) | –
